Calls of active or inactive are those of the source. The rule behind the calls is not given here.
Tests used:
[1] = biological target: T1, Protein cereblon/CREB-binding protein (Homo sapiens, UniProt Q92793+Q96SW2); assay: PROTAC activity at CBP/CRBN in human VCaP cells assessed as protein degradation incubated for 4 hrs by Western blot analysis; assay type: cell-based
VCaP [2] = assay: Antitumor activity against human VCaP cells xenografted in CB17 SCID mouse model assessed as tumor growth inhibition at 0.3 mg/kg, po qd scheduled 5 days in a week measured on day 63; assay type: functional; settings: 1512 h, time 63 day, read-out: TGI
LNCaP [3] = assay: Reduction in KLK3 gene expression in AR positive human LNCaP cells assessed as reduction in mRNA level measured after 6 hrs by qRT-PCT analysis relative to control; assay type: functional, cell-based; settings: dose 0.1-1000 nM
[4] = Reduction in AR gene expression in AR positive human VCaP cells assessed as reduction in mRNA level at 1 nM measured after 6 hrs by qRT-PCT analysis relative to control; assay type: functional
CWR22R [5] = assay: Effect on other proteins on global level in human 22Rv1 cells at 100 nM incubated for 4 hrs by multiplexed quantitative proteomics analysis relative to control; assay type: functional, cell-based
CWR22R [6] = assay: Potency index, ratio of GNE-049 IC50 to test compound IC50 for antiproliferative activity against AR positive human 22Rv1 cells assessed inhibition of cell growth measured after 4 days by CellTiter-Glo Luminescent cell viability assay; assay type: functional; settings: time 4 day
[7] = Plasma concentration in CB17 SCID mouse xenografted with human VCaP cells at 1 mg/kg, po measured after 24 hrs by LC-MS/MS analysis; assay type: ADME, organism-based
[8] = Oral bioavailability in male ICR mouse at 3 mg/kg measured upto 24 hrs by LC-MS/MS analysis; assay type: ADME, organism-based; settings: in vivo
[9] = biological target: T2, Protein cereblon/Histone acetyltransferase p300 (Homo sapiens, UniProt Q09472+Q96SW2); assay: PROTAC activity at p300/CRBN in human VCaP cells assessed as maximal protein degradation at 1 uM incubated for 4 hrs by Western blot analysis relative to control; assay type: cell-based
LNCaP [10] = assay: Reduction in c-Myc gene expression in AR positive human LNCaP cells assessed as reduction in mRNA level measured after 6 hrs by qRT-PCT analysis relative to control; assay type: functional, cell-based; settings: dose 0.1-1000 nM
[11] = biological target: T1, Protein cereblon/CREB-binding protein; assay: PROTAC activity at CBP/CRBN in AR positive human VCaP cells assessed as maximal protein degradation at 1.4 nM incubated for 4 hrs by Western blot analysis relative to control; assay type: cell-based
Target sequence in this assay (Q92793 2-2442 limits assumed): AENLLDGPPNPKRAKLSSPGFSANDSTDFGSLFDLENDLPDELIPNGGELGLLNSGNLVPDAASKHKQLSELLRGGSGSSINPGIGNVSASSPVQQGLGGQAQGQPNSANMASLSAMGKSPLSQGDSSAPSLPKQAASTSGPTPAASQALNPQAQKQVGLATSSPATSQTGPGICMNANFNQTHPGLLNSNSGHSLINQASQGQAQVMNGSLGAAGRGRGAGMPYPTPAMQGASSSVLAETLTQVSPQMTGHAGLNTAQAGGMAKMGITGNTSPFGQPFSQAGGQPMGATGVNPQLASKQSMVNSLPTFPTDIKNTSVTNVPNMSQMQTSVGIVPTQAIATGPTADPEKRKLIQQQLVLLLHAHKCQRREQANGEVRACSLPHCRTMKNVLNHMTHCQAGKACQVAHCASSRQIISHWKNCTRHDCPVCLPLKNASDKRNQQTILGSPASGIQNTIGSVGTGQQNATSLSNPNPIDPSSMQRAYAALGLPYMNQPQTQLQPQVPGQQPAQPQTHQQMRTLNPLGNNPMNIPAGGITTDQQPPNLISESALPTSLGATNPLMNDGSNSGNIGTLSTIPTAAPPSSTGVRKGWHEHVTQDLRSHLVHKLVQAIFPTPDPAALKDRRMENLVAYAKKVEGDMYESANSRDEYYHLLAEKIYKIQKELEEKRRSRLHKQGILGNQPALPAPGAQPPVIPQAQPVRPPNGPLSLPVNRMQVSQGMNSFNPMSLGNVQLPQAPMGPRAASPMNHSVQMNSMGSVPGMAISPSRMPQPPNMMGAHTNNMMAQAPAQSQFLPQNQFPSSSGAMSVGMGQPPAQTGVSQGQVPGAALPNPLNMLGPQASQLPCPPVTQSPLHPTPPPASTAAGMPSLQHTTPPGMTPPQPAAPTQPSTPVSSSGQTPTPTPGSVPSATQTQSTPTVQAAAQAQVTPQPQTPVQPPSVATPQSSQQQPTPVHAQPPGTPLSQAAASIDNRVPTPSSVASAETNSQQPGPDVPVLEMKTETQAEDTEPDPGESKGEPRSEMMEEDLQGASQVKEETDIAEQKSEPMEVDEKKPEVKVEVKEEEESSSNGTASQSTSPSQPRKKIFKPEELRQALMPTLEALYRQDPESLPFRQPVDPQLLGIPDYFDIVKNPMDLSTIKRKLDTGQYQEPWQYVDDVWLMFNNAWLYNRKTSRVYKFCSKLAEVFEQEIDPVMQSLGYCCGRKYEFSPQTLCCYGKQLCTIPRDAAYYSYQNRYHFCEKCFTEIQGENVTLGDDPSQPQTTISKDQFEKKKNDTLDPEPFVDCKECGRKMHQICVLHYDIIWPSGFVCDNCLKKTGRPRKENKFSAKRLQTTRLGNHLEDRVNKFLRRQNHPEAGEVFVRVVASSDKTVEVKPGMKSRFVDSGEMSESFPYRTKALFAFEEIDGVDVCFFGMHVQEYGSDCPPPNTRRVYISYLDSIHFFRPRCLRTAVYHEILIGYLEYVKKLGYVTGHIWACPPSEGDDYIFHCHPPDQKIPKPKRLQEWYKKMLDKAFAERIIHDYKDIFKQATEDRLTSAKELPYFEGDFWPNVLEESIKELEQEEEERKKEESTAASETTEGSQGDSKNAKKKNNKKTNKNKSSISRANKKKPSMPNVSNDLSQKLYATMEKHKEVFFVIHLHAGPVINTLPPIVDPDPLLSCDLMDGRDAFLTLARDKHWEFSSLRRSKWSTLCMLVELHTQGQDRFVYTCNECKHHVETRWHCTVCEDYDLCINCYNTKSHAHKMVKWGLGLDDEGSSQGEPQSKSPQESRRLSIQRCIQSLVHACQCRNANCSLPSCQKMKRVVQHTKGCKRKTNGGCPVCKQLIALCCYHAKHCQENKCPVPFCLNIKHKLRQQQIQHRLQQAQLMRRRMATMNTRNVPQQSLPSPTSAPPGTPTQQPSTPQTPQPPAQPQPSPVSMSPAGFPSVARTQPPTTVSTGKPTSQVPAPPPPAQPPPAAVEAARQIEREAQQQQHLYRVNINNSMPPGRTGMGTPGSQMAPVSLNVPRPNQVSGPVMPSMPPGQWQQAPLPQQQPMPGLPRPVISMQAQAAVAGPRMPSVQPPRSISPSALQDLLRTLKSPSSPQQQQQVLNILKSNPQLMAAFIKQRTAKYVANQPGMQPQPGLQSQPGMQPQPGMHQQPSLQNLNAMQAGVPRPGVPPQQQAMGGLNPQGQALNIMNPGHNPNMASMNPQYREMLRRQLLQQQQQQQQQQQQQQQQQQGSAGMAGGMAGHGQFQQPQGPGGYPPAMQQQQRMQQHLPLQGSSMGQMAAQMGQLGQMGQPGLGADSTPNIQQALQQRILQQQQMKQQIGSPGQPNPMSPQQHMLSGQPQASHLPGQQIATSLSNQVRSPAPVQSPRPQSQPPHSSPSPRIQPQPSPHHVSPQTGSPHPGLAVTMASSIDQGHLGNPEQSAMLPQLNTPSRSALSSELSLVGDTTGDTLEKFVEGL
Target sequence in this assay (Q96SW2 whole entry partner): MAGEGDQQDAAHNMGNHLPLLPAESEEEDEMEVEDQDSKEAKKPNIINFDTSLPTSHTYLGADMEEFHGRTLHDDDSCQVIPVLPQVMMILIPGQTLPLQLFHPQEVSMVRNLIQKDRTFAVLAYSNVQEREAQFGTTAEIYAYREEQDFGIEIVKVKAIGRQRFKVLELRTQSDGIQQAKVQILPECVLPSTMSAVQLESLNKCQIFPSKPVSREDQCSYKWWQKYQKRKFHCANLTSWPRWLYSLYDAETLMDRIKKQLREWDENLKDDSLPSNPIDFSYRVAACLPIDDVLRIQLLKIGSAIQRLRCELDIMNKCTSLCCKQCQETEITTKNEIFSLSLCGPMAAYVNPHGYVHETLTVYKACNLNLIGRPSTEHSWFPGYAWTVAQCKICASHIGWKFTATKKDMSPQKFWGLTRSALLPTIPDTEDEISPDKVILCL

[12] = biological target: T1, Protein cereblon/CREB-binding protein; assay: In vivo PROTAC activity at CBP/CRBN in human VCaP cells xenografted in SCID mouse assessed as reduction in CBP protein at 1 mg/kg, po measured after 3 hrs; assay type: functional, organism-based; set-up: scale not given: the % may be the effect or the level left
Target sequence in this assay (Q92793 2-2442 limits assumed): as the sequence (Q92793 2-2442 limits assumed) above
Target sequence in this assay (Q96SW2 whole entry partner): as the sequence (Q96SW2 whole entry partner) above

[13] = biological target: T2, Protein cereblon/Histone acetyltransferase p300; assay: PROTAC activity at p300/CRBN in AR positive human VCaP cells assessed as maximal protein degradation at 1000 nM incubated for 4 hrs by Western blot analysis relative to control; assay type: cell-based
[14] = Apparent permeability coefficient across apical to basolateral side in human Caco-2 cells at 10 uM incubated for 120 mins by LC-MS/MS analysis; assay type: ADME, cell-based; settings: caco-2, 2 h
[15] = Apparent permeability coefficient across basolateral to apical side in human Caco-2 cells at 10 uM incubated for 120 mins by LC-MS/MS analysis; assay type: ADME, cell-based; settings: caco-2, 2 h
VCaP [16] = assay: Antitumor activity against human VCaP cells xenografted in CB17 SCID mouse model assessed as tumor growth inhibition at 1 mg/kg, po qd scheduled 5 days in a week measured on day 63; assay type: functional; settings: 1512 h, time 63 day, read-out: TGI
[17] = AUC in male ICR mouse at 3 mg/kg, po measured upto 24 hrs by LC-MS/MS analysis; assay type: ADME, organism-based; settings: in vivo
LNCaP [18] = assay: Potency index, ratio of GNE-049 IC50 to test compound IC50 for antiproliferative activity against AR positive human LNCaP cells assessed inhibition of cell growth measured after 4 days by CellTiter-Glo Luminescent cell viability assay; assay type: functional; settings: time 4 day
[19] = biological target: T1, Protein cereblon/CREB-binding protein; assay: In vivo PROTAC activity at p300/CRBN in human VCaP cells xenografted in CB17 SCID mouse assessed as reduction in CBP protein at 1 mg/kg, po measured after 3 hrs; assay type: functional, organism-based; set-up: scale not given: the % may be the effect or the level left
Target sequence in this assay (Q92793 2-2442 limits assumed): as the sequence (Q92793 2-2442 limits assumed) above
Target sequence in this assay (Q96SW2 whole entry partner): as the sequence (Q96SW2 whole entry partner) above

CWR22R [20] = assay: Reduction in AR gene expression in AR positive human 22Rv1 cells assessed as reduction in mRNA level measured after 6 hrs by qRT-PCT analysis relative to control; assay type: functional, cell-based; settings: dose 0.1-1000 nM
[21] = biological target: T1, Protein cereblon/CREB-binding protein; assay: PROTAC activity at CBP/CRBN in AR positive human VCaP cells assessed as maximal protein degradation at 111.1 nM incubated for 4 hrs by Western blot analysis relative to control; assay type: cell-based
Target sequence in this assay (Q92793 2-2442 limits assumed): as the sequence (Q92793 2-2442 limits assumed) above
Target sequence in this assay (Q96SW2 whole entry partner): as the sequence (Q96SW2 whole entry partner) above

[22] = biological target: T2, Protein cereblon/Histone acetyltransferase p300; assay: PROTAC activity at p300/CRBN in AR positive human VCaP cells assessed as maximal protein degradation at 12.3 nM incubated for 4 hrs by Western blot analysis relative to control; assay type: cell-based
CWR22R [23] = assay: Potency index, ratio of ARV-110 IC50 to test compound IC50 for antiproliferative activity against AR positive human 22Rv1 cells assessed inhibition of cell growth measured after 4 days by CellTiter-Glo Luminescent cell viability assay; assay type: functional; settings: time 4 day
[24] = Drug exposure in CB17 SCID mouse xenografted with human VCaP cells assessed compound concentration in tumor at 1 mg/kg, po measured after 24 hrs by LC-MS/MS analysis; assay type: ADME, organism-based, Neoplasm; settings: in vivo, BLD = below limit of detection
[25] = Reduction in AR gene expression in AR positive human LNCaP cells assessed as reduction in mRNA level at 10 nM measured after 6 hrs by qRT-PCT analysis relative to control; assay type: functional
[26] = Drug exposure in CB17 SCID mouse xenografted with human VCaP cells assessed compound concentration in tumor at 3 mg/kg, po measured after 24 hrs by LC-MS/MS analysis; assay type: ADME, organism-based, Neoplasm; settings: in vivo, BLD = below limit of detection
[27] = Volume of distribution at steady state in male ICR mouse at 1 mg/kg, iv measured upto 24 hrs by LC-MS/MS analysis; assay type: ADME, organism-based; settings: in vivo, read-out: Vdss
[28] = biological target: T1, Protein cereblon/CREB-binding protein; assay: PROTAC activity at CBP/CRBN in AR positive human VCaP cells assessed as maximal protein degradation at 1000 nM incubated for 4 hrs by Western blot analysis relative to control; assay type: cell-based
Target sequence in this assay (Q92793 2-2442 limits assumed): as the sequence (Q92793 2-2442 limits assumed) above
Target sequence in this assay (Q96SW2 whole entry partner): as the sequence (Q96SW2 whole entry partner) above

[29] = biological target: T1, Protein cereblon/CREB-binding protein; assay: In vivo PROTAC activity at CBP/CRBN in human VCaP cells xenografted in SCID mouse assessed as reduction in CBP protein at 3 mg/kg, po measured after 24 hrs; assay type: functional, organism-based; set-up: scale not given: the % may be the effect or the level left
Target sequence in this assay (Q92793 2-2442 limits assumed): as the sequence (Q92793 2-2442 limits assumed) above
Target sequence in this assay (Q96SW2 whole entry partner): as the sequence (Q96SW2 whole entry partner) above

[30] = Plasma concentration in CB17 SCID mouse xenografted with human VCaP cells at 3 mg/kg, po measured after 3 hrs by LC-MS/MS analysis; assay type: ADME, organism-based
[31] = biological target: T2, Protein cereblon/Histone acetyltransferase p300; assay: PROTAC activity at p300/CRBN in AR positive human VCaP cells assessed as maximal protein degradation at 1.4 nM incubated for 4 hrs by Western blot analysis relative to control; assay type: cell-based
[32] = biological target: T2, Protein cereblon/Histone acetyltransferase p300; assay: PROTAC activity at p300/CRBN in AR positive human VCaP cells assessed as maximal protein degradation at 111 nM incubated for 4 hrs by Western blot analysis relative to control; assay type: cell-based
[33] = Cmax in male ICR mouse at 3 mg/kg, po measured upto 24 hrs by LC-MS/MS analysis; assay type: ADME, organism-based; settings: in vivo
[34] = Drug exposure in CB17 SCID mouse xenografted with human VCaP cells assessed compound concentration in tumor at 1 mg/kg, po measured after 3 hrs by LC-MS/MS analysis; assay type: ADME, organism-based, Neoplasm; settings: read-out: Drug uptake

In the case of `CC(=O)N1CCc2c(c(N3CCCc4cc(-c5cnn(C)c5)c(C(F)F)cc43)nn2[C@H]2CC[C@H](CN3CCN(c4ccc5c(c4)C(=O)N(C4CCC(=O)NC4=O)C5=O)CC3)CC2)C1` (some centres undefined), the DC50 [1] is reported as 0.3 nM, the inhibition in vivo at 0.3 mg/kg (VCaP [2]) is reported as 73% and the inhibition (LNCaP [3]) is reported as “Dose-Dependent Effect”. For the same molecule, the inhibition at 0.001 µM [4] was 77%, the Activity (CWR22R [5]) was “inactive” and the “Ratio IC50” value (CWR22R [6]) was 100. The concentration at 24 h [7] was 16 ng/mL, the bioavailability [8] was 50% and the Emax [9] was over 95%. For the same molecule, the inhibition (LNCaP [10]) was “Dose-Dependent Effect”, the Activity [11] was 91% and the Activity [12] was over 95%. The Activity [13] was 75%, the Papp [14] was 2.8 10^-6 cm/s and the Papp [15] was 2.3 10^-6 cm/s. For the same molecule, the inhibition in vivo at 1 mg/kg (VCaP [16]) was 87%, the AUC at 24 h [17] was 15500 ng·h/mL and the “Ratio IC50” value (LNCaP [18]) was 100. The Activity [19] was over 95%, the inhibition (CWR22R [20]) was “Dose-Dependent Effect” and the Activity [21] was 94%. For the same molecule, the Activity [22] was 100%, the “Ratio IC50” value (CWR22R [23]) was over 50 and the Drug uptake [24] was “Bld”. The inhibition at 0.01 µM [25] was 67%, the Drug uptake [26] was “Bld” and the Vd [27] was 0.4 L/kg. For the same molecule, the Activity [28] was 51%, the Activity [29] was over 95% and the concentration at 3 h [30] was 355 ng/mL. It also gave an Activity [31] of 97%, an Activity [32] of 100% and a Cmax [33] of 2490 ng/mL. It also gave a concentration at 3 h [34] of 30 ng/mL.
